# Measured values reported in patent US20140004209A1, “AUTOPHAGY INDUCER AND INHIBITOR COMBINATION THERAPY FOR THE TREATMENT OF NEOPLASMS” (GENENTECH, INC., priority 2010, published 2014).
# “Also recorded” adds a separate entry of the source.
# Experiments:
# PC3 cells [1] = assay: Autophagy markers in PC3 cells (EM AVs, GFP-LC3, LC3-II/LC3-I, MDC, AO); type: cell-based, human
# Description: (§1) Western blot analysis, immunofluorescence, 1HC and TUNEL assay: For Western blot analysis, total protein lysates were subjected to SDS-PAGE and transferred to nitrocellulose. […] Detection and quantification were performed using an Odyssey infrared scanner (LICOR) using the manufacturer's software. For immunofluorescence staining, cells were fixed in 3% paraformaldehyde and permeabilized with 0.01% digitonin in PBS, followed by a rabbit polyclonal anti-LC3 (Abgent) primary antibody detected with a cy3-conjugated anti-rabbit secondary antibody (Jackson Immunoresearch). For IHC, formalin-fixed, paraffin-embedded specimens were collected. 5-μm-thick paraffin-embedded sections were stained using an anti-Ki-67 (MIB-1, DakoCytomation) antibody with the Dako ARK kit (Dako Corporation). Tissues were counterstained with haematoxylin, dehydrated, and mounted. In all cases, antigen retrieval was performed with the Dako Target Retrieval Kit as per manufacturer's instructions. For TUNEL assay, formalin-fixed, paraffin-embedded sections were stained using an in situ cell death detection kit (POD; Roche Diagnostic) according to the manufacturer's instructions.
# Ultrathin sections were stained with uranyl acetate and lead citrate. Numbers of AV were counted on systematically sampled cytoplasmic areas of 4.5 μm^2 (n≧64 per condition). The percent AV area was measured by means of a square mesh grid laid over ≧5 sets of systematically sampled micrographs with each set covering a cytoplasmic area ≧80 μm^2. The average percent of apoptotic nuclei in tumor tissues was calculated from the number of apoptotic nuclei in 3 to 4 sets of 100 systematically counted tumor cell nuclei.
# Multispectral imaging flow cytometry: Cells treated with various agents were stained with Acridine Orange and analyzed by the ImageStream system (Amnis Corporation, Seattle, Wash.) using the IDEAS image analysis program. The DNA AOGreen image and the vacuolar AO Red image were first compensated into separate channels, and then the percentage of apoptotic/anucleate cells (based on AO nuclear morphology and intensity) and vacuolated cells (AO Red+) were quantified. […] AORed Intensity is plotted on the second histogram with an arbitrary gate (R5) drawn to include events with the brightest AO Red intensity.
# PC3 cells [2] = assay: Mitochondrial superoxide (MitoSOX red) and cellular ROS in PC3 cells; type: cell-based, human
# Description: (B) PC3 cells treated as in A were stained with the Image-iT LIVE green ROS Detection kit and examined by fluorescence microscopy at 24 h. […] (C) Quantification of MitoSOX red and ROS green fluorescence intensities by flow cytometry at 24 h. Cells were treated as in A and B. Error bars represent SEM (n=3).
# Because mitochondria are the primary intracellular source of superoxide (O2^−) generation, we analyzed O2^− production using MitoSOX red, an O2^− indicator that accumulates in the mitochondria as a function of membrane potential and fluoresces upon oxidation and subsequent binding to DNA.
# PC3 xenograft tumors = assay: PC3 xenograft tumor growth; type: in vivo, mice
# Description: Xenograft study: Six- to 8-week-old female athymic nude nu/nu mice were purchased from Charles River Laboratories and maintained in Genentech's conventional animal facility. Mice were injected in the right flank with 5˜7.5×10^6 cells resuspended in 200 μl Hank's Balanced Salt Solution (Invitrogen). When tumors reached a mean volume of 100˜300 mm^3 the mice with similarly-sized tumors were grouped into treatment cohorts. […] Amber-colored water bottles were used and were changed 3 times per week. […] Tumors were measured with calipers and mice weighed twice per week. Mice whose tumors reached 2000 mm^3 or lost more than 20% body weight were euthanized. Between 8˜10 mice were used for each treatment group. Statistical significance was analyzed using the JMP software (SAS Institute, Inc.).
# We next examined the effect of Akt KDs on the ability of PC3 cells to maintain the growth of established tumors in vivo.
# PC3 cells [3] = assay: Time-lapse microscopy of PC3 cells; type: cell-based, human; conditions: 10 μM, 5% FBS, 3 d
# Description: Time-lapse video microscopy: Cells cultured in 24-well plates were imaged on an Olympus IX81 inverted microscope under environmental control (37° C. and 5% CO2) for 3 days. Imaging started 6 hours after the addition of the compounds and was taken at 1-hour intervals.
# PC3 cells [4] = assay: Mitochondrial membrane potential (MitoPT dye) in PC3 cells; type: cell-based, human; conditions: 0.5% FBS
# Description: FIG. 21. […] Images at 48 h are shown. […] Merged images between red and green channels are also shown (MitoPT-M). Scale bar: 20 μm. (B) Percentage of cells showing red punctate stains and diffuse green stains from treatments described in (A). >86 cells from two random fields of fluorescent images of each treatment were counted. Error bars represent standard deviations between the two fields. […] Total fluorescence intensity from all cells was collected using the Isocyte (Blueshift Biotechnologies), a laser scanning imager. Green fluorescence intensity is collected with a 488 nm laser and a 510-540 nm band pass filter, and normalized to cell number determined by Hoechst staining using a 405 nm laser and a 430-480 nm band pass filter. Error bars, standard deviation between two independent experiments. (D) Representative images of the green ROS signals and bright field (BF) taken under a Nikon TE300 inverted microscope. […] Scale bar: 20 μm.
# Cell Culture and Reagents: The PTEN^−/− and PTEN^+/+ MEFs were maintained as previously described (Sun, H., R. Lesche, D. M. Li, J. Liliental, H. Zhang, J. Gao, N. Gavrilova, B. Mueller, X. Liu, and H. Wu, (1999), PTEN modulates cell cycle progression and cell survival by regulating phosphatidylinositol 3,4,5,-trisphosphate and Akt/protein kinase B signaling pathway. Proc Natl Acad Sci USA. 96:6199-204). The PC3 and U87MG cells were maintained at 37° C. and 5% CO2 in DMEM/Ham's F-12 (1:1) containing 10% tetracycline-free fetal bovine serum. II-4 was from Calbiochem (Akt inhibitor VIII) (Barnett, S. F., D. Defeo-Jones, S. Fu, P. J. Hancock, K. M. Haskell, R. E. Jones, J. A. Kahana, A. M. Kral, K. Leander, L. L. Lee, J. Malinowski, E. M. McAvoy, D. D. Nahas, R. G. Robinson, and H. E. Huber, (2005), Identification and characterization of pleckstrin-homology-domain-dependent and isoenzyme-specific Akt inhibitors. Biochem J. 385:399-408). […] Image-iT LIVE Green Reactive Oxygen Species Detection Kit was purchased from Molecular Probes. MitoPT Mitochondria Permeability Transition Detection Kit was purchased from Immunochemistry Technologies, LLC.
# PC3 cells [5] = assay: Immunoblot of LAMP1, cathepsin D and p62 in PC3 cells; type: cell-based, human
# Description: as §1, with “nitrocellulose. Antibodies used were: anti-Akt1, anti-Akt2, anti-Akt3, anti-total-Akt, anti-p-Akt (Ser473), anti-p-Akt (Thr308), anti-p-S6 (Ser235/236), anti-PARP and anti-cleaved caspase-3 (Cell Signaling Technology); anti-p-PRAS40 (Invitrogen); anti-p27^Kip1 (Santa Cruz Biotechnology); anti-LC3 (Novus); anti-LAMP2 and anti-Cathepsin D (BD Biosciences); and anti-GAPDH (Advanced Immunochemical Inc.).” for “nitrocellulose.”
# Because autophagy is a key function of the lysosomal compartment (Terman, A., B. Gustafsson, and U. T. Brunk, (2006), The lysosomal-mitochondrial axis theory of postmitotic aging and cell death. Chem Biol Interact. 163:29-37), we examined the lysosomal marker LAMPI and cathepsin D, the predominant lysosomal aspartic protease, by immunoblotting (FIG. 6, B and C). […] Cathepsin D is synthesized as a 43-kD preprocathepsin D that is cleaved cotranslationally and glycosylated to form a 46-kD procathepsin D, which is targeted to lysosomes yielding an intermediate that is further cleaved into a mature enzyme consisting of a 15-kD light chain and a 28-kD heavy chain.
# [6] = Autophagic vacuole accumulation by side scatter (SSC) in a flow cytometer; type: cell-based
# Description: Inhibitors include 3-phenyl-2-(4-((4-(5-(pyridin-2-yl)-1H-1,2,4-triazol-3-yl)piperidin-1-yl)methyl)phenyl)-1,6-naphthyridin-5(6H)-one (II-3), benzyl 2-(4-(3-ethylureido)phenyl)-4-(1,4-oxazepan-4-yl)-5H-pyrrolo[3,4-d]pyrimidine-6(7H)-carboxylate (III-1); 1-ethyl-3-(4-(4-morpholino-7-(pyrimidin-2-yl)-5,6,7,8-tetrahydropyrido[3,4-d]pyrimidin-2-yl)phenyl)urea (III-2), (R)-1-(44(2-(2-aminopyrimidin-5-yl)-7-methyl-4-morpholinothieno[3,2-d]pyrimidin-6-yl)methyl)piperazin-1-yl)-2-hydroxypropan-1-one (III-3), 4-(2-(1H-indazol-4-yl)-6-((4-(methylsulfonyl)piperazin-1-yl)methyl)thieno[3,2-d]pyrimidin-4-yl)morpholine (III-6), (S)—N-(4-(benzo[d][1,3]dioxol-5-yl)thiazol-2-yl)-N-(3-(2-formylpiperidin-1-yl)propyl)thiophene-2-carboxamide (IV-2) and Rapamycin.
# FIG. 14 depicts CQ (10 μM) increases the number and size of autophagic vacuoles when combined with the various mTOR, PI3K, and Akt inhibitors.
# [7] = Cell death in combination with CQ (FIG. 17); type: cell-based
# [8] = tested on: SKBR3Breast cancer cell line; assay: Autophagy (Acridine Orange) and apoptosis (AnnV/PI) induction with CQ; type: cell-based
# Description: (§2) FIGS. 32A-B and 34A-B depict data showing correlation between Autophagy induction and apoptosis induction when each compound is combined with CQ at 24 hrs after the given compound treatment measured by Acridine Orange staining in 537MEL melanoma cell line and SKBR3Breast cancer cell line, respectively. Control was DMSO.
# (§3) FIGS. 33A-G and 35A-G show dose response curve of apoptosis induction in 537MEL melanoma and SKBR3Breast cancer cells, respectively, treated with the indicated compound alone or with 10 μM CQ, measured by Annezin V (AnnV) and Propidium iodide (PI) staining.
# [9] = tested on: 537MEL melanoma cell line; assay: as above; type: cell-based
# Description: as §2, §3
# [10] = 24 hrs, Acridine Orange staining
smiles,measurement,setting,value
"CCN(CC)CCCC(C)Nc1ccnc2cc(Cl)ccc12 (stereo not shown) [CQ, chloroquine]","AVO accumulation, agent alone (multispectral imaging flow cytometry)",PC3 cells [1],induced AVO accumulation without significant loss of viability
same,"induction of AV accumulation / autophagy, agent alone",PC3 cells [1],induced accumulation of AVs
same,"MitoSOX fluorescence, agent alone",PC3 cells [2],mild increase in MitoSOX signal
same,"cellular ROS signal, agent alone",PC3 cells [2],little effect on ROS levels
same,tumors with stasis maintained throughout the study,"PC3 xenograft tumors; PC3-shAkt123 xenograft, both Dox and CQ",20%
same,tumors with complete regression,"PC3 xenograft tumors; PC3-shAkt123 xenograft, both Dox and CQ, intraperitoneal",40%
same,"incidence of complete tumor remission, CQ combined with Akt knockdown","PC3 xenograft tumors; mouse, in vivo",significantly increased the incidence of complete tumor remission; also recorded: increased the incidence of complete tumor remissions in vivo
same,"cell division and morphology, agent alone",PC3 cells [3],mild decrease in cell division and a gradual accumulation of dark particles in the perinuclear region
same,"mitochondrial membrane potential, agent alone",PC3 cells [4],did not have a significant effect
same,p62 level,PC3 cells [5],increased the level of p62 both with and without Akti; also recorded: blocked p62 degradation both with and without II-4 treatment
"CS(=O)(=O)N1CCN(Cc2cc3nc(-c4cccc5[nH]ncc45)nc(N4CCOCC4)c3s2)CC1 [III-6, 4-(2-(1H-indazol-4-yl)-6-((4-(methylsulfonyl)piperazin-1-yl)methyl)thieno[3,2-d]pyrimidin-4-yl)morpholine]","autophagic vacuole accumulation (SSC), inhibitor alone",[6],induce increased autophagic vacuole accumulation
same,interaction with CQ on cell death,[7],synergize with CQ to accelerate cell death
"O=C(NOC[C@H](O)CO)c1ccc(F)c(F)c1Nc1ccc(I)cc1F [VII, (R)—N-(2,3-dihydroxypropoxy)-3,4-difluoro-2-(2-fluoro-4-iodophenylamino)benzamide]",apoptosis induction when combined with CQ,"[8]; 10 μM CQ, AnnV and PI staining",no synergistic apoptosis induction is shown when combined with CQ; also recorded: CQ does not induce apoptosis in cancer cells
same,autophagy induction,[8]; [10],does not induce an increase in autophagy
same,apoptosis induction when combined with CQ,"[9]; 10 μM CQ, AnnV and PI staining",no synergistic apoptosis induction is shown when combined with CQ; also recorded: CQ does not induce apoptosis in cancer cells
same,autophagy induction,[9]; [10],does not induce an increase in autophagy
